Experimental data taken from US9617244B2, “Antibacterial quinoline derivatives” (JANSSEN PHARMACEUTICA NV, priority 2012, dated 2017).
Converted amounts (≈) assume the structure as drawn.

Tested on: Staphylococcus aureus (ATCC29213)
Assay: In-vitro anti-bacterial activity, microtitre plate assay, IC90 determination (non-mycobacterial strains)
Format: cell-based
Details: 90% inhibitory concentration for bacterial growth, 24 hours, resazurin fluorescence
Summary of the method: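 Growth inhibition measured fluorometrically with resazurin (530/590 nm) after overnight 37 °C incubation under normal atmosphere. Bacteria added at roughly 100 TCID50 per well in Mueller-Hinton broth to five-fold compound dilution series; IC90 reported in μg/ml.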

Row | Structure (SMILES) | IC90 STA B29213 [µg/mL]
1 | Cc1cc(F)ccc1C1CC(O)(C(c2ccccc2)c2cc3cc(S(C)(=O)=O)ccc3[nH]c2=O)CCN1 (centres unmarked) [Compound 238] | >13.99
2 | O=c1[nH]c2ccc(Cl)cc2cc1C(c1ccc(Cl)cc1)C1(O)CCNC(Cc2ccccc2)C1 (centres unmarked) [Compound 239] | 1.67 (≈ 3.38 µM)
3 | O=c1[nH]c2ccc(Cl)cc2cc1C(c1ccc(Cl)cc1)C1(O)CCNC(Cc2ccccc2)C1 (centres unmarked) [Compound 240] | 6.67 (≈ 13.5 µM)
4 | O=c1[nH]c2ccc(Cl)cc2cc1C(c1ccc(Cl)cc1)C1(O)CCNC(Cc2ccccc2)C1 (centres unmarked) [Compound 241] | 4.72 (≈ 9.57 µM)
5 | COc1nc2ccc(SC)cc2cc1C(c1ccc(Cl)cc1)C1(O)CCNC(c2ccc(F)cc2C)C1 (centres unmarked) [Compound 242] | 1.51 (≈ 2.81 µM)
6 | COc1nc2ccc(S(C)(=O)=O)cc2cc1C(c1ccccc1)C1(O)CCNC(c2ccc(F)cc2C)C1 (centres unmarked) [Compound 253] | >13.43
7 | O=c1[nH]c2ccc(Br)cc2cc1C(c1ccc(Cl)cc1)C1(O)CCNC(CC2CCCCC2)C1 (centres unmarked) [Compound 255] | 3.65 (≈ 6.71 µM)
8 | O=c1[nH]c2ccc(Br)cc2cc1C(c1ccc(Cl)cc1)C1(O)CCNC(CC2CCCCC2)C1 (centres unmarked) [Compound 258] | 3.66 (≈ 6.73 µM)

Other lines, results leading:

Row | IC90 STA B29213 [µg/mL] | Structure (SMILES)
9 | >13.89 | Cc1cc(F)ccc1C1CC(O)(C(c2ccccc2)c2cc3cc(S(C)(=O)=O)ccc3[nH]c2=O)CCN1 (centres unmarked) [Compound 263]
10 | >13.88 | Cc1cc(F)ccc1C1CC(O)(C(c2ccccc2)c2cc3cc(S(C)(=O)=O)ccc3[nH]c2=O)CCN1 (centres unmarked) [Compound 264]
11 | >13.92 | Cc1cc(F)ccc1C1CC(O)(C(c2ccccc2)c2cc3cc(S(C)(=O)=O)ccc3[nH]c2=O)CCN1 (centres unmarked) [Compound 265]
12 | 1.76 (≈ 3.36 µM) | CSc1ccc2[nH]c(=O)c(C(c3ccc(Cl)cc3)C3(O)CCNC(c4ccc(F)cc4C)C3)cc2c1 (centres unmarked) [Compound 268]
13 | >14.75 | Cc1cc(F)ccc1C1CC(O)(C(c2cccc(Cl)c2)c2cc3cc(S(C)(=O)=O)ccc3[nH]c2=O)CCN1 (centres unmarked) [Compound 269]
14 | 7.42 (≈ 13.4 µM) | Cc1cc(F)ccc1C1CC(O)(C(c2cccc(Cl)c2)c2cc3cc(S(C)(=O)=O)ccc3[nH]c2=O)CCN1 (centres unmarked) [Compound 270]
15 | 7.42 (≈ 13.4 µM) | Cc1cc(F)ccc1C1CC(O)(C(c2cccc(Cl)c2)c2cc3cc(S(C)(=O)=O)ccc3[nH]c2=O)CCN1 (centres unmarked) [Compound 271]
16 | >14.78 | Cc1cc(F)ccc1C1CC(O)(C(c2cccc(Cl)c2)c2cc3cc(S(C)(=O)=O)ccc3[nH]c2=O)CCN1 (centres unmarked) [Compound 272]
17 | 1.91 (≈ 3.56 µM) | COc1nc2ccc(SC)cc2cc1C(c1ccc(Cl)cc1)C1(O)CCNC(c2ccc(F)cc2C)C1 (centres unmarked) [Compound 274]
18 | 1.70 (≈ 3.17 µM) | COc1nc2ccc(SC)cc2cc1C(c1ccc(Cl)cc1)C1(O)CCNC(c2ccc(F)cc2C)C1 (centres unmarked) [Compound 276]
19 | 1.76 (≈ 3.36 µM) | CSc1ccc2[nH]c(=O)c(C(c3ccc(Cl)cc3)C3(O)CCNC(c4ccc(F)cc4C)C3)cc2c1 (centres unmarked) [Compound 277]

Tested on: Mycobacterium smegmatis (ATCC607)
Assay: In-vitro anti-bacterial activity against strain M. Smegmatis ATCC607
Format: cell-based
Details: 90% inhibitory concentration for bacterial growth, 48 hours, Alamar Blue fluorescence
Summary of the method: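 IC90 (μg/ml) derived from Alamar Blue fluorescence (530/590 nm) after 48 h growth at 37 °C under 5% CO2. About 250 CFU per well in Mueller-Hinton broth faced five-fold serial compound dilutions in BSA-containing wells.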

Row | Structure (SMILES) | IC90 MSM 607 [µg/mL]
20 | Cc1cc(F)ccc1C1CC(O)(C(c2ccccc2)c2cc3cc(S(C)(=O)=O)ccc3[nH]c2=O)CCN1 (centres unmarked) [Compound 238] | >13.99
21 | O=c1[nH]c2ccc(Cl)cc2cc1C(c1ccc(Cl)cc1)C1(O)CCNC(Cc2ccccc2)C1 (centres unmarked) [Compound 239] | 2.97 (≈ 6.02 µM)
22 | O=c1[nH]c2ccc(Cl)cc2cc1C(c1ccc(Cl)cc1)C1(O)CCNC(Cc2ccccc2)C1 (centres unmarked) [Compound 240] | 4.21 (≈ 8.53 µM)
23 | O=c1[nH]c2ccc(Cl)cc2cc1C(c1ccc(Cl)cc1)C1(O)CCNC(Cc2ccccc2)C1 (centres unmarked) [Compound 241] | 3.34 (≈ 6.77 µM)
24 | COc1nc2ccc(S(C)(=O)=O)cc2cc1C(c1ccccc1)C1(O)CCNC(c2ccc(F)cc2C)C1 (centres unmarked) [Compound 253] | >13.43
25 | O=c1[nH]c2ccc(Br)cc2cc1C(c1ccc(Cl)cc1)C1(O)CCNC(CC2CCCCC2)C1 (centres unmarked) [Compound 255] | 7.28 (≈ 13.4 µM)
26 | O=c1[nH]c2ccc(Br)cc2cc1C(c1ccc(Cl)cc1)C1(O)CCNC(CC2CCCCC2)C1 (centres unmarked) [Compound 258] | 3.66 (≈ 6.73 µM)

The next lines start with the values.

Row | IC90 MSM 607 [µg/mL] | Structure (SMILES)
27 | >13.89 | Cc1cc(F)ccc1C1CC(O)(C(c2ccccc2)c2cc3cc(S(C)(=O)=O)ccc3[nH]c2=O)CCN1 (centres unmarked) [Compound 263]
28 | 3.49 (≈ 6.7 µM) | Cc1cc(F)ccc1C1CC(O)(C(c2ccccc2)c2cc3cc(S(C)(=O)=O)ccc3[nH]c2=O)CCN1 (centres unmarked) [Compound 264]
29 | 13.92 (≈ 26.7 µM) | Cc1cc(F)ccc1C1CC(O)(C(c2ccccc2)c2cc3cc(S(C)(=O)=O)ccc3[nH]c2=O)CCN1 (centres unmarked) [Compound 265]
30 | 1.40 (≈ 2.68 µM) | CSc1ccc2[nH]c(=O)c(C(c3ccc(Cl)cc3)C3(O)CCNC(c4ccc(F)cc4C)C3)cc2c1 (centres unmarked) [Compound 268]
31 | >14.75 | Cc1cc(F)ccc1C1CC(O)(C(c2cccc(Cl)c2)c2cc3cc(S(C)(=O)=O)ccc3[nH]c2=O)CCN1 (centres unmarked) [Compound 269]
32 | 5.89 (≈ 10.6 µM) | Cc1cc(F)ccc1C1CC(O)(C(c2cccc(Cl)c2)c2cc3cc(S(C)(=O)=O)ccc3[nH]c2=O)CCN1 (centres unmarked) [Compound 270]
33 | 9.34 (≈ 16.8 µM) | Cc1cc(F)ccc1C1CC(O)(C(c2cccc(Cl)c2)c2cc3cc(S(C)(=O)=O)ccc3[nH]c2=O)CCN1 (centres unmarked) [Compound 271]
34 | >14.78 | Cc1cc(F)ccc1C1CC(O)(C(c2cccc(Cl)c2)c2cc3cc(S(C)(=O)=O)ccc3[nH]c2=O)CCN1 (centres unmarked) [Compound 272]
35 | 1.07 (≈ 1.99 µM) | COc1nc2ccc(SC)cc2cc1C(c1ccc(Cl)cc1)C1(O)CCNC(c2ccc(F)cc2C)C1 (centres unmarked) [Compound 274]
36 | 1.07 (≈ 1.99 µM) | COc1nc2ccc(SC)cc2cc1C(c1ccc(Cl)cc1)C1(O)CCNC(c2ccc(F)cc2C)C1 (centres unmarked) [Compound 276]
37 | 1.40 (≈ 2.68 µM) | CSc1ccc2[nH]c(=O)c(C(c3ccc(Cl)cc3)C3(O)CCNC(c4ccc(F)cc4C)C3)cc2c1 (centres unmarked) [Compound 277]

Same assay, conditions: Mycolicibacterium smegmatis, ATCC607, 48 h, 90% inhibitory concentration for bacterial growth, Alamar Blue fluorescence, read-out: IC90 MSM 607

Row | IC90 [µg/mL] | Structure (SMILES)
38 | 1.2 (≈ 2.23 µM) | COc1nc2ccc(SC)cc2cc1C(c1ccc(Cl)cc1)C1(O)CCNC(c2ccc(F)cc2C)C1 (centres unmarked) [Compound 242]
